As a reminder, the inhibition is the relative decrease from the control value, in per cent.

Like-named read-outs stand apart in the source and are kept apart here.

The values that follow come from patent US20080051387A1, “TETRAHYDROPYRIDO[3,4-D]PYRIMIDINES AND RELATED ANALOGUES” (priority 2006, published 2008).

The target in this assay is T1, chimeric human H3 receptor (Homo sapiens, UniProt Q9Y5N1).
T1 construct: rat Galpha-i2 (Gnai2, rat); made in house; host or cells: Sf9 insect cells (baculovirus); P2 membranes
Briefly: Chimeric human H3 receptor screening GTP binding assay (inhibition of histamine-stimulated GTP-gamma35S binding, Example 8). The format is biochemical. The following applies: read-out: percent inhibition of agonist-induced GTP-gammaS binding to H3. In a few lines:
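Compound tested at 4 μM against 1 μM histamine stimulation; 125 pM GTP-gamma35S binding measured by filtration and scintillation after 60 min at room temperature. Membranes from Sf9 cells expressing chimeric human H3 plus G-protein subunits, in Tris pH 7.4/NaCl/MgCl2/GDP buffer; values are % inhibition after nonspecific subtraction.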

Setting [1] is: symbol ! in Ki, test compound 4 μM, 1 μM histamine.
The mark [2] stands for this setting: 1 h, assay of Example 8, symbol "!" in column headed Ki.

T1 sequence (Q9Y5N1 with tags, fused parts or gaps): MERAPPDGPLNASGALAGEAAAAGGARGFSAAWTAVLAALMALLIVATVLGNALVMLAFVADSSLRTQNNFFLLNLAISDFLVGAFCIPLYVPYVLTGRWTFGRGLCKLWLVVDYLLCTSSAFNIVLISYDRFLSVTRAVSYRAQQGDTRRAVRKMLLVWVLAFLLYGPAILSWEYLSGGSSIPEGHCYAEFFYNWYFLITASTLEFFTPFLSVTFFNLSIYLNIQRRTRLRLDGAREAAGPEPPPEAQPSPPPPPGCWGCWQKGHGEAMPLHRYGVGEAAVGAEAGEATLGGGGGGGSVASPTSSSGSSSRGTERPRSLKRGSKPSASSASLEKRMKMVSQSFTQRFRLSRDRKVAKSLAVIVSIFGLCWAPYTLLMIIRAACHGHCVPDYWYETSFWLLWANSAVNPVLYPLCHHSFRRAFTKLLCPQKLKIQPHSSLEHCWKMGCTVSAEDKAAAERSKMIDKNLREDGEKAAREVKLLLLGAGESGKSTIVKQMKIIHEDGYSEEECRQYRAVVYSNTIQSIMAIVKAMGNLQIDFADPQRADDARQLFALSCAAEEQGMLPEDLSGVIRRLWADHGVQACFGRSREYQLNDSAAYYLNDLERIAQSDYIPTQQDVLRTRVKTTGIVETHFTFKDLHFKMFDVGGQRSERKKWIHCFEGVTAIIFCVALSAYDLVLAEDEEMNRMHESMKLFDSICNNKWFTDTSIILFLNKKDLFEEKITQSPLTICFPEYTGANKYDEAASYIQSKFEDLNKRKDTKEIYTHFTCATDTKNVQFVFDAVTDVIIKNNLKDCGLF

`CCC(C)CN1CCc2ncnc(N3CCN(C4CCC4)CC3)c2CC1` (stereo not drawn) [Compound 167, 4-(4-cyclobutylpiperazin-1-yl)-7-(2-methylbutyl)-6,7,8,9-tetrahydro-5H-pyrimido[4,5-d]azepine]: the inhibition at 4 µM under setting [1] is ≥ 90%.
On to `CCC(CC)CN1CCc2ncnc(N3CCN(C4CCC4)CC3)c2CC1` [Compound 168, 4-(4-cyclobutylpiperazin-1-yl)-7-(2-ethylbutyl)-6,7,8,9-tetrahydro-5H-pyrimido[4,5-d]azepine], for which, under setting [1], the inhibition at 4 µM is ≥ 90%.
Regarding `c1nc2c(c(N3CCN(C4CCC4)CC3)n1)CCN(CC1CC1)CC2` [Compound 169, 4-(4-cyclobutylpiperazin-1-yl)-7-(cyclopropylmethyl)-6,7,8,9-tetrahydro-5H-pyrimido[4,5-d]azepine], the inhibition at 4 µM under setting [1] was ≥ 90%.
On the same count and under the same terms, as for `CCCC(C)CN1CCc2ncnc(N3CCN(C4CCC4)CC3)c2CC1` (stereo not drawn) [Compound 170, 4-(4-cyclobutylpiperazin-1-yl)-7-(2-methylpentyl)-6,7,8,9-tetrahydro-5H-pyrimido[4,5-d]azepine], the figure is ≥ 90%; as for `c1nc2c(c(N3CCN(C4CCC4)CC3)n1)CCN(CC1CCOC1)CC2` (stereo not drawn) [Compound 171, 4-(4-cyclobutylpiperazin-1-yl)-7-(tetrahydrofuran-3-ylmethyl)-6,7,8,9-tetrahydro-5H-pyrimido[4,5-d]azepine], ≥ 90%; as for `Cc1ccc(CN2CCc3ncnc(N4CCN(C5CCC5)CC4)c3CC2)cc1C` [Compound 172, 4-(4-cyclobutylpiperazin-1-yl)-7-(3,4-dimethylbenzyl)-6,7,8,9-tetrahydro-5H-pyrimido[4,5-d]azepine], ≥ 90%.
For the compound `c1nc2c(c(N3CCN(C4CCC4)CC3)n1)CCN(Cc1ccc3c(c1)OCCO3)CC2` [Compound 173, 4-(4-cyclobutylpiperazin-1-yl)-7-(2,3-dihydro-1,4-benzodioxin-6-ylmethyl)-6,7,8,9-tetrahydro-5H-pyrimido[4,5-d]azepine], the inhibition at 4 µM under setting [1] was ≥ 90%.
Same read-out and setting: under `c1ccc2nc(CN3CCc4ncnc(N5CCN(C6CCC6)CC5)c4CC3)ccc2c1` [Compound 174, 4-(4-cyclobutylpiperazin-1-yl)-7-(quinolin-2-ylmethyl)-6,7,8,9-tetrahydro-5H-pyrimido[4,5-d]azepine] stands ≥ 90%; under `COc1cccc(CN2CCc3ncnc(N4CCN(C5CCC5)CC4)c3CC2)c1OC` [Compound 175, 4-(4-cyclobutylpiperazin-1-yl)-7-(2,3-dimethoxybenzyl)-6,7,8,9-tetrahydro-5H-pyrimido[4,5-d]azepine], ≥ 90%; under `COc1ccc(OC)c(CN2CCc3ncnc(N4CCN(C5CCC5)CC4)c3CC2)c1` [Compound 176, 4-(4-cyclobutylpiperazin-1-yl)-7-(2,5-dimethoxybenzyl)-6,7,8,9-tetrahydro-5H-pyrimido[4,5-d]azepine], ≥ 90%.
Regarding `CCn1cncc1CN1CCc2ncnc(N3CCN(C4CCC4)CC3)c2CC1` [Compound 177, 4-(4-cyclobutylpiperazin-1-yl)-7-[(1-ethyl-1H-imidazol-5-yl)methyl]-6,7,8,9-tetrahydro-5H-pyrimido[4,5-d]azepine], under setting [1], the inhibition at 4 µM is ≥ 90%.
On to `c1nc2c(c(N3CCN(C4CCC4)CC3)n1)CCN(Cc1ccc(N3CCCC3)nc1)CC2` [Compound 178, 4-(4-cyclobutylpiperazin-1-yl)-7-[(6-pyrrolidin-1-ylpyridin-3-yl)methyl]-6,7,8,9-tetrahydro-5H-pyrimido[4,5-d]azepine], for which the inhibition at 4 µM under setting [1] was ≥ 90%.
Still for that read-out and setting: as for `Cc1c(F)cccc1CN1CCc2ncnc(N3CCN(C4CCC4)CC3)c2CC1` [Compound 179, 4-(4-cyclobutylpiperazin-1-yl)-7-(3-fluoro-2-methylbenzyl)-6,7,8,9-tetrahydro-5H-pyrimido[4,5-d]azepine], the figure is ≥ 90%.
The same measure, in the same setting: as for `Clc1ccccc1CN1CCc2ncnc(N3CCN(C4CCC4)CC3)c2CC1` [Compound 180, 7-(2-chlorobenzyl)-4-(4-cyclobutylpiperazin-1-yl)-6,7,8,9-tetrahydro-5H-pyrimido[4,5-d]azepine], the figure is ≥ 90%.
On the same count and under the same terms, as for `Clc1ccc(CN2CCc3ncnc(N4CCN(C5CCC5)CC4)c3CC2)c(Cl)c1` [Compound 181, 4-(4-cyclobutylpiperazin-1-yl)-7-(2,4-dichlorobenzyl)-6,7,8,9-tetrahydro-5H-pyrimido[4,5-d]azepine], the figure is ≥ 90%; as for `c1nc2c(c(N3CCN(C4CCC4)CC3)n1)CCN(Cc1ccc(N3CCCC3)cc1)CC2` [Compound 182, 4-(4-cyclobutylpiperazin-1-yl)-7-(4-pyrrolidin-1-ylbenzyl)-6,7,8,9-tetrahydro-5H-pyrimido[4,5-d]azepine], ≥ 90%.
With `CCC(=O)N1CCc2cnc(N3CCN(C4CCC4)CC3)nc2CC1` [Compound 184, 2-(4-cyclobutylpiperazin-1-yl)-7-propionyl-6,7,8,9-tetrahydro-5H-pyrimido[4,5-d]azepine], the inhibition at 4 µM under setting [2] was ≥ 90%.
As to `CC(=O)c1ccc(N2CCc3cnc(N4CCN(C5CCC5)CC4)nc3CC2)nc1` [Compound 185, 1-{6-[2-(4-cyclobutylpiperazin-1-yl)-5,6,8,9-tetrahydro-7H-pyrimido[4,5-d]azepin-7-yl]pyridin-3-yl}ethanone], the inhibition at 4 µM under setting [2] is ≥ 90%.
For the compound `CNC(=O)c1ccc(N2CCc3cnc(N4CCN(C5CCC5)CC4)nc3CC2)nc1` [Compound 186, 6-[2-(4-cyclobutylpiperazin-1-yl)-5,6,8,9-tetrahydro-7H-pyrimido[4,5-d]azepin-7-yl]-N-methylnicotinamide], the inhibition at 4 µM under setting [2] is ≥ 90%.
As to `Cc1cccc(C(=O)N2CCc3cnc(N4CCN(C5CCC5)CC4)nc3CC2)c1` [Compound 187, 2-(4-cyclobutylpiperazin-1-yl)-7-(3-methylbenzoyl)-6,7,8,9-tetrahydro-5H-pyrimido[4,5-d]azepine], under setting [2], the inhibition at 4 µM is ≥ 90%.
As for `Cc1ccc(C(=O)N2CCc3cnc(N4CCN(C5CCC5)CC4)nc3CC2)cc1` [Compound 188, 2-(4-cyclobutylpiperazin-1-yl)-7-(4-methylbenzoyl)-6,7,8,9-tetrahydro-5H-pyrimido[4,5-d]azepine], under setting [2], the inhibition at 4 µM was ≥ 90%.
Turning to `Cc1ccccc1C(=O)N1CCc2cnc(N3CCN(C4CCC4)CC3)nc2CC1` [Compound 189, 2-(4-cyclobutylpiperazin-1-yl)-7-(2-methylbenzoyl)-6,7,8,9-tetrahydro-5H-pyrimido[4,5-d]azepine], under setting [2], the inhibition at 4 µM was ≥ 90%.
As for `COc1cccc(C(=O)N2CCc3cnc(N4CCN(C5CCC5)CC4)nc3CC2)c1` [Compound 190, 2-(4-cyclobutylpiperazin-1-yl)-7-(3-methoxybenzoyl)-6,7,8,9-tetrahydro-5H-pyrimido[4,5-d]azepine], the inhibition at 4 µM under setting [2] was ≥ 90%.
Turning to `COc1ccc(C(=O)N2CCc3cnc(N4CCN(C5CCC5)CC4)nc3CC2)cc1` [Compound 191, 2-(4-cyclobutylpiperazin-1-yl)-7-(4-methoxybenzoyl)-6,7,8,9-tetrahydro-5H-pyrimido[4,5-d]azepine], under setting [2], the inhibition at 4 µM was ≥ 90%.
The same measure, in the same setting: under `COc1ccccc1C(=O)N1CCc2cnc(N3CCN(C4CCC4)CC3)nc2CC1` [Compound 192, 2-(4-cyclobutylpiperazin-1-yl)-7-(2-methoxybenzoyl)-6,7,8,9-tetrahydro-5H-pyrimido[4,5-d]azepine] stands ≥ 90%; under `O=C(c1cccc(F)c1)N1CCc2cnc(N3CCN(C4CCC4)CC3)nc2CC1` [Compound 193, 2-(4-cyclobutylpiperazin-1-yl)-7-(3-fluorobenzoyl)-6,7,8,9-tetrahydro-5H-pyrimido[4,5-d]azepine], ≥ 90%; under `O=C(c1ccc(F)cc1)N1CCc2cnc(N3CCN(C4CCC4)CC3)nc2CC1` [Compound 194, 2-(4-cyclobutylpiperazin-1-yl)-7-(4-fluorobenzoyl)-6,7,8,9-tetrahydro-5H-pyrimido[4,5-d]azepine], ≥ 90%.
Same read-out and setting: under `O=C(c1ccccc1F)N1CCc2cnc(N3CCN(C4CCC4)CC3)nc2CC1` [Compound 195, 2-(4-cyclobutylpiperazin-1-yl)-7-(2-fluorobenzoyl)-6,7,8,9-tetrahydro-5H-pyrimido[4,5-d]azepine] stands ≥ 90%; under `O=C(c1ccco1)N1CCc2cnc(N3CCN(C4CCC4)CC3)nc2CC1` [Compound 196, 2-(4-cyclobutylpiperazin-1-yl)-7-(2-furoyl)-6,7,8,9-tetrahydro-5H-pyrimido[4,5-d]azepine], ≥ 90%; under `O=C(c1ccoc1)N1CCc2cnc(N3CCN(C4CCC4)CC3)nc2CC1` [Compound 197, 2-(4-cyclobutylpiperazin-1-yl)-7-(3-furoyl)-6,7,8,9-tetrahydro-5H-pyrimido[4,5-d]azepine], ≥ 90%.
Consider `O=C(c1cccnc1)N1CCc2cnc(N3CCN(C4CCC4)CC3)nc2CC1` [Compound 198, 2-(4-cyclobutylpiperazin-1-yl)-7-(pyridin-3-ylcarbonyl)-6,7,8,9-tetrahydro-5H-pyrimido[4,5-d]azepine], for which the inhibition at 4 µM under setting [2] was ≥ 90%.
The same measure, in the same setting: as for `O=C(c1ccccn1)N1CCc2cnc(N3CCN(C4CCC4)CC3)nc2CC1` [Compound 199, 2-(4-cyclobutylpiperazin-1-yl)-7-(pyridin-2-ylcarbonyl)-6,7,8,9-tetrahydro-5H-pyrimido[4,5-d]azepine], the figure is ≥ 90%.
With `O=C(c1ccno1)N1CCc2cnc(N3CCN(C4CCC4)CC3)nc2CC1` [Compound 200, 2-(4-cyclobutylpiperazin-1-yl)-7-(isoxazol-5-ylcarbonyl)-6,7,8,9-tetrahydro-5H-pyrimido[4,5-d]azepine], the inhibition at 4 µM under setting [2] was ≥ 90%.
